Data published in PubChem BioAssay (NCI).
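Each compound was tested at five concentrations against cells in 96-well plates for 48 hours. TGI: total growth inhibition.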

Assays:
Assay in all cases: DTP human tumour cell line panel, 48 h
HCT-116 colon = system: HCT-116 colon
CCRF-CEM leukemia = system: CCRF-CEM leukemia
CAKI-1 renal = system: CAKI-1 renal
SF-295 CNS = system: SF-295 CNS
MDA-MB-231 breast = system: MDA-MB-231 breast
BT-549 breast = system: BT-549 breast
HCC-2998 colon = system: HCC-2998 colon
UO-31 renal = system: UO-31 renal
SNB-19 CNS = system: SNB-19 CNS
786-0 renal = system: 786-0 renal
NCI/ADR-RES ovarian = system: NCI/ADR-RES ovarian
NCI-H226 lung = system: NCI-H226 lung
SF-539 CNS = system: SF-539 CNS
SF-268 CNS = system: SF-268 CNS
OVCAR-3 ovarian = system: OVCAR-3 ovarian
HOP-92 NSCLC = system: HOP-92 NSCLC
COLO 205 colon = system: COLO 205 colon
HS 578T breast = system: HS 578T breast
MOLT-4 leukemia = system: MOLT-4 leukemia
SK-MEL-5 melanoma = system: SK-MEL-5 melanoma
OVCAR-4 ovarian = system: OVCAR-4 ovarian
OVCAR-8 ovarian = system: OVCAR-8 ovarian
NCI-H460 lung = system: NCI-H460 lung
HCT-15 colon = system: HCT-15 colon
SK-MEL-2 melanoma = system: SK-MEL-2 melanoma
NCI-H23 lung = system: NCI-H23 lung
ACHN renal = system: ACHN renal
DU-145 prostate = system: DU-145 prostate
SN12C renal = system: SN12C renal
OVCAR-5 ovarian = system: OVCAR-5 ovarian
KM12 colon = system: KM12 colon
HT29 colon = system: HT29 colon
SW-620 colon = system: SW-620 colon
MDA-N = system: MDA-N
EKVX NSCLC = system: EKVX NSCLC
SK-OV-3 ovarian = system: SK-OV-3 ovarian
MALME-3M melanoma = system: MALME-3M melanoma
SR leukemia = system: SR leukemia
RXF 393 renal = system: RXF 393 renal
T-47D breast = system: T-47D breast
UACC-62 melanoma = system: UACC-62 melanoma
LOX IMVI melanoma = system: LOX IMVI melanoma
A549 NSCLC = system: A549 NSCLC
SK-MEL-28 melanoma = system: SK-MEL-28 melanoma
M14 melanoma = system: M14 melanoma
MDA-MB-435 = system: MDA-MB-435
SNB-75 CNS = system: SNB-75 CNS
U251 CNS = system: U251 CNS
NCI-H522 lung = system: NCI-H522 lung
MCF7 breast = system: MCF7 breast
PC-3 prostate = system: PC-3 prostate
TK-10 renal = system: TK-10 renal
K-562 leukemia = system: K-562 leukemia
HL-60(TB) leukemia = system: HL-60(TB) leukemia
UACC-257 melanoma = system: UACC-257 melanoma
RPMI-8226 leukemia = system: RPMI-8226 leukemia
HOP-62 NSCLC = system: HOP-62 NSCLC
IGROV1 ovarian = system: IGROV1 ovarian
A498 renal = system: A498 renal

COC(=O)[C@]1(C)CCC[C@]2(C)[C@@H](CCC(=O)C(C)C)[C@]3(C=O)O[C@@H]3C[C@H]21
TGI (HCT-116 colon): 57.7 µM | TGI (CCRF-CEM leukemia): > 100 µM | TGI (CAKI-1 renal): 31.9 µM | TGI (SF-295 CNS): > 100 µM | TGI (MDA-MB-231 breast): > 100 µM | TGI (BT-549 breast): 77.3 µM | TGI (HCC-2998 colon): > 100 µM | TGI (UO-31 renal): 48.4 µM | TGI (SNB-19 CNS): > 100 µM | TGI (786-0 renal): > 100 µM | TGI (NCI/ADR-RES ovarian): 90.4 µM | TGI (NCI-H226 lung): > 100 µM | TGI (SF-539 CNS): > 100 µM | TGI (SF-268 CNS): > 100 µM | TGI (OVCAR-3 ovarian): > 100 µM | TGI (HOP-92 NSCLC): > 100 µM | TGI (COLO 205 colon): > 100 µM | TGI (HS 578T breast): > 100 µM | TGI (MOLT-4 leukemia): > 100 µM | TGI (SK-MEL-5 melanoma): > 100 µM | TGI (OVCAR-4 ovarian): 87.3 µM | TGI (OVCAR-8 ovarian): > 100 µM | TGI (NCI-H460 lung): > 100 µM | TGI (HCT-15 colon): > 100 µM | TGI (SK-MEL-2 melanoma): > 100 µM | TGI (NCI-H23 lung): > 100 µM | TGI (ACHN renal): 57.3 µM | TGI (DU-145 prostate): > 100 µM | TGI (SN12C renal): > 100 µM | TGI (OVCAR-5 ovarian): > 100 µM | TGI (KM12 colon): > 100 µM | TGI (HT29 colon): > 100 µM | TGI (SW-620 colon): > 100 µM | TGI (MDA-N): 75.1 µM | TGI (EKVX NSCLC): > 100 µM | TGI (SK-OV-3 ovarian): > 100 µM | TGI (MALME-3M melanoma): > 100 µM | TGI (SR leukemia): > 100 µM | TGI (RXF 393 renal): 51.7 µM | TGI (T-47D breast): 95.7 µM | TGI (UACC-62 melanoma): > 100 µM | TGI (LOX IMVI melanoma): 92.3 µM | TGI (A549 NSCLC): > 100 µM | TGI (SK-MEL-28 melanoma): > 100 µM | TGI (M14 melanoma): > 100 µM | TGI (MDA-MB-435): 99.6 µM | TGI (SNB-75 CNS): 63.9 µM | TGI (U251 CNS): > 100 µM | TGI (NCI-H522 lung): 46.6 µM | TGI (MCF7 breast): > 100 µM | TGI (PC-3 prostate): > 100 µM | TGI (TK-10 renal): > 100 µM | TGI (K-562 leukemia): > 100 µM | TGI (HL-60(TB) leukemia): > 100 µM | TGI (UACC-257 melanoma): > 100 µM

CCOC(=O)c1cn(CC)c2ccc3ccsc3c2c1=O
TGI (HCT-116 colon): > 100 µM | TGI (CCRF-CEM leukemia): > 100 µM | TGI (CAKI-1 renal): > 100 µM | TGI (SF-295 CNS): > 100 µM | TGI (MDA-MB-231 breast): > 100 µM | TGI (BT-549 breast): > 100 µM | TGI (HCC-2998 colon): > 100 µM | TGI (UO-31 renal): > 100 µM | TGI (SNB-19 CNS): > 100 µM | TGI (786-0 renal): > 100 µM | TGI (NCI/ADR-RES ovarian): > 100 µM | TGI (NCI-H226 lung): > 100 µM | TGI (SF-539 CNS): > 100 µM | TGI (SF-268 CNS): > 100 µM | TGI (OVCAR-3 ovarian): > 100 µM | TGI (HOP-92 NSCLC): > 100 µM | TGI (COLO 205 colon): > 100 µM | TGI (HS 578T breast): > 100 µM | TGI (MOLT-4 leukemia): > 100 µM | TGI (SK-MEL-5 melanoma): > 100 µM | TGI (OVCAR-4 ovarian): > 100 µM | TGI (OVCAR-8 ovarian): > 100 µM | TGI (NCI-H460 lung): > 100 µM | TGI (HCT-15 colon): > 100 µM | TGI (SK-MEL-2 melanoma): > 100 µM | TGI (NCI-H23 lung): > 100 µM | TGI (ACHN renal): > 100 µM | TGI (DU-145 prostate): > 100 µM | TGI (OVCAR-5 ovarian): > 100 µM | TGI (KM12 colon): > 100 µM | TGI (HT29 colon): > 100 µM | TGI (SW-620 colon): > 100 µM | TGI (MDA-N): > 100 µM | TGI (EKVX NSCLC): > 100 µM | TGI (SK-OV-3 ovarian): > 100 µM | TGI (RPMI-8226 leukemia): > 100 µM | TGI (MALME-3M melanoma): > 100 µM | TGI (RXF 393 renal): > 100 µM | TGI (T-47D breast): > 100 µM | TGI (UACC-62 melanoma): > 100 µM | TGI (LOX IMVI melanoma): > 100 µM | TGI (A549 NSCLC): > 100 µM | TGI (SK-MEL-28 melanoma): > 100 µM | TGI (M14 melanoma): > 100 µM | TGI (MDA-MB-435): > 100 µM | TGI (SNB-75 CNS): > 100 µM | TGI (U251 CNS): > 100 µM | TGI (NCI-H522 lung): > 100 µM | TGI (MCF7 breast): > 100 µM | TGI (PC-3 prostate): > 100 µM | TGI (HOP-62 NSCLC): > 100 µM | TGI (TK-10 renal): > 100 µM | TGI (K-562 leukemia): > 100 µM | TGI (HL-60(TB) leukemia): > 100 µM | TGI (IGROV1 ovarian): > 100 µM | TGI (UACC-257 melanoma): > 100 µM | TGI (A498 renal): > 100 µM

CC(CNC(=O)c1ccccc1)(CNC(=O)c1ccccc1)[N+](=O)[O-]
TGI (HCT-116 colon): > 100 µM | TGI (CAKI-1 renal): > 100 µM | TGI (SF-295 CNS): > 100 µM | TGI (MDA-MB-231 breast): > 100 µM | TGI (BT-549 breast): > 100 µM | TGI (UO-31 renal): > 100 µM | TGI (SNB-19 CNS): 73.3 µM | TGI (786-0 renal): > 100 µM | TGI (NCI/ADR-RES ovarian): > 100 µM | TGI (NCI-H226 lung): > 100 µM | TGI (SF-539 CNS): > 100 µM | TGI (SF-268 CNS): > 100 µM | TGI (HOP-92 NSCLC): > 100 µM | TGI (COLO 205 colon): > 100 µM | TGI (HS 578T breast): > 100 µM | TGI (MOLT-4 leukemia): > 100 µM | TGI (SK-MEL-5 melanoma): > 100 µM | TGI (OVCAR-8 ovarian): > 100 µM | TGI (NCI-H460 lung): > 100 µM | TGI (HCT-15 colon): > 100 µM | TGI (SK-MEL-2 melanoma): > 100 µM | TGI (NCI-H23 lung): > 100 µM | TGI (ACHN renal): > 100 µM | TGI (DU-145 prostate): > 100 µM | TGI (SN12C renal): > 100 µM | TGI (OVCAR-5 ovarian): > 100 µM | TGI (KM12 colon): > 100 µM | TGI (HT29 colon): > 100 µM | TGI (SW-620 colon): > 100 µM | TGI (MDA-N): > 100 µM | TGI (EKVX NSCLC): > 100 µM | TGI (SK-OV-3 ovarian): > 100 µM | TGI (RPMI-8226 leukemia): > 100 µM | TGI (MALME-3M melanoma): > 100 µM | TGI (SR leukemia): > 100 µM | TGI (RXF 393 renal): > 100 µM | TGI (T-47D breast): > 100 µM | TGI (UACC-62 melanoma): > 100 µM | TGI (A549 NSCLC): > 100 µM | TGI (M14 melanoma): > 100 µM | TGI (MDA-MB-435): > 100 µM | TGI (SNB-75 CNS): > 100 µM | TGI (U251 CNS): > 100 µM | TGI (NCI-H522 lung): > 100 µM | TGI (MCF7 breast): > 100 µM | TGI (PC-3 prostate): > 100 µM | TGI (TK-10 renal): > 100 µM | TGI (K-562 leukemia): > 100 µM | TGI (HL-60(TB) leukemia): > 100 µM | TGI (IGROV1 ovarian): > 100 µM | TGI (UACC-257 melanoma): > 100 µM
